Biological target: T1, Axl (Homo sapiens, UniProt P30530)
T1 construct: endogenous in cells; host or cells: HeLa cells
T1 sequence (P30530 26-894): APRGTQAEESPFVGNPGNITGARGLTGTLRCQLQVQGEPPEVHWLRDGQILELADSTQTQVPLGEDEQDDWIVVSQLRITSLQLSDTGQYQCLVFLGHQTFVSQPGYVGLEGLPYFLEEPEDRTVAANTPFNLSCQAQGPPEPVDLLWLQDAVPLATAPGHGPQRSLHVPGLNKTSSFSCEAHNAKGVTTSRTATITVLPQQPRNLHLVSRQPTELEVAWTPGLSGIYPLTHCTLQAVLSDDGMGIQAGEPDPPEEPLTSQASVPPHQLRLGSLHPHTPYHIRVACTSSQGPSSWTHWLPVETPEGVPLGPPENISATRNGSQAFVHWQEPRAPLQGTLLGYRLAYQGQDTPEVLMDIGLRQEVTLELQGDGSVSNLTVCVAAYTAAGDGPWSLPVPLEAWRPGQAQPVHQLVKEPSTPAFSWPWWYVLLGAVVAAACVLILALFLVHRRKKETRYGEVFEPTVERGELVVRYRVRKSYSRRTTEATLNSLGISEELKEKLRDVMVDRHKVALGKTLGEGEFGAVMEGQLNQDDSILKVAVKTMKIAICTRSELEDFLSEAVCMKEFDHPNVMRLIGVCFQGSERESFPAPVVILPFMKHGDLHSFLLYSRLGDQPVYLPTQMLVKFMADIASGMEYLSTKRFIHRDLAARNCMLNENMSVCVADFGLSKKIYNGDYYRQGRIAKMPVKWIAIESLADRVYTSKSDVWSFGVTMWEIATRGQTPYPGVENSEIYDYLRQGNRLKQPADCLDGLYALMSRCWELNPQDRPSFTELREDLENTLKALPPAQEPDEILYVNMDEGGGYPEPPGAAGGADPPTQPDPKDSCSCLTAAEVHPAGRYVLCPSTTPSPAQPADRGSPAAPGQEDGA
Experiment: Phospho-Akt in-cell Western assay (inhibition of Axl activity)
Type: cell-based
Method: The compounds of the invention were tested in the following assay for their ability to inhibit Axl activity.
Phospho-Akt in-Cell Western Assay
• Cell culture plate: 96 well assay plate (Corning 3610), white, clear bottom, tissue-culture treated. • Cells: Hela cells. • Starvation medium: For Axl stimulation: 0.5% FCS (fetal calf serum) in DMEM, plus Axl/Fc (extracellular domain of AXL fused to immunoglobulin Fc region) (R&D, 154-AL) 500 ng/mL. • For EGF (epidermal growth factor) stimulation: 0.5% FCS in DMEM (Dulbecco's modified Eagles medium). • Poly-L-Lysine 0.01% solution (the working solution): 10 μg/ml, dilute In PBS (phosphate buffered saline). • Axl antibody cross-linking: • 1st: Mouse anti-Axl (R&D, MAB154). • 2nd: Biotin-SP-conjugated AffiniPure goat anti-mouse IgG (H+L) (Jackson ImmunoResearch #115-065-003). • Fixing buffer: 4% formaldehyde in PBS. • Wash buffer: 0.1% TritonX-100 in PBS. • Quenching buffer: 3% H2O2, 0.1% Azide in wash buffer, Azide and hydrogen peroxide (H2O2) are added fresh. • Blocking buffer: 5% BSA in TBST (tris buffered saline plus 0.1% Tween 20). • Primary antibody: Rabbit anti-human Phospho-Akt antibody (Cell Signaling 9271): 1×250 diluted in blocking buffer. • Secondary antibody: HRP (horse radish peroxidase)-conjugated Goat anti-Rabbit secondary, stock solution: Jackson ImmunoResearch (Goat anti-Rabbit HRP, #111-035-144) 1:1 diluted in glycerol, store at −20° C. The working solution: 1×2000 dilution of stock in blocking buffer. • Chemiluminescent working solution (Pierce, 37030): SuperSignal ELISA (enzyme linked immunosorbant assay) Pico Chemiluminescent substrate. • Crystal Violet solution: Stock: 2.5% Crystal violet in methanol, filtered and kept at ambient temperature. The working solution: dilute the stock 1:20 with PBS immediately before use. • 10% SDS: working solution: 5% SDS (sodium dodecylsulfate), diluted in PBS Methods: Day 1:
A 96 well TC (tissue culture treated) plate was coated with 10 μg/mL poly-L-Lysine at 37° C. for 30 min, washed twice with PBS, and air-dried for 5 minutes before cells were added. Hela cells were seeded at 10,000 cells/well and the cells were starved in 100 μL starvation medium containing Axl/Fc for 24 hrs.
The cells were pre-treated with test compounds by adding 100 μL of 2× test compound to the starvation medium on the cells. The cells were incubated at 37° C. for 1 hr before stimulation.
The cells were stimulated by Axl-antibody cross-linking as follows: A 5×1st/2nd Axl antibody mixture was made (37.5 μg/mL 1st/100 μg/mL 2nd) in starvation medium and nutated at 4° C. with thorough mixing for 1-2 hours for clustering. The resulting mix was warmed to 37° C. 50 μL of 5× Axl 1st/2nd of antibody cluster was added to the cells and the cells were incubated at 37° C. for 5 min.
After 5 minutes stimulation, the plate was flicked to remove medium and the plate was tapped onto paper towels. Formaldehyde (4.0% in PBS, 100 μL) was added to fix the cells and the cells were incubated at ambient temperature for 20 min without shaking.
The cells were washed with a plate washer buffer to remove the formaldehyde solution. The plate was flicked to removed excess wash buffer and tapped onto paper towels. Quenching buffer (100 μL) was added to each well and the cells were incubated at ambient temperature for 20 minutes without shaking.
The cells were washed with a plate washer buffer to remove the quenching buffer. Blocking buffer (100 μL) was added and the cells were incubated at ambient temperature for at least an hour with gentle shaking.
The cells were washed with a plate washer buffer and diluted primary antibody (50 μL) was added to each well (blocking buffer was added to the negative control wells instead). The plates were incubated overnight at 4° C. with gentle shaking.
The wash buffer was removed, diluted secondary antibody (100 μL) was added, and the cells were incubated at ambient temperature for 1 hour with gentle shaking. […]

[1] = Table 4, Hela cells, Axl antibody cross-linking stimulation, phospho-Akt chemiluminescence
[2] = inhibition of Axl activity, Table 1
[3] = Table 3, Hela cells, Axl antibody cross-linking stimulation, phospho-Akt chemiluminescence
[4] = inhibition of Axl activity, phospho-Akt in-cell Western assay, Table 1

Compound	IC50 [2]	further results
CC(C)Oc1ccc(Nc2nc(N)nn2C(=O)c2ccc3c(c2)NC(=O)C(C)(C)O3)cc1 [compound 66, 3-amino-1-(2,2-dimethyl-2H-benzo[b][1,4]oxazin-3(4H)-on-6-yl)carbonyl-5-(4-(iso-propoxy)phenyl)amino-1H-1,2,4-triazole]	–	IC50 [1]: 1 to 10 µM
Nc1nc(Nc2ccc(N3CCOCC3)cc2)nn1C(=O)c1cccc(O)c1 [compound 67, 5-amino-1-(3-(hydroxy)phenyl)carbonyl-3-(4-(morpholin-4-yl)phenylamino)-1H-1,2,4-triazole]	1 to 10 µM	–
CC1(C)Oc2ccc(C(=O)n3nc(Nc4ccc(N5CCOCC5)cc4)nc3N)cc2NC1=O [compound 68, 5-amino-1-(2,2-dimethyl-2H-benzo[b][1,4]oxazin-3(4H)-on-6-yl)carbonyl-3-(4-(morpholin-4-yl)phenylamino)-1H-1,2,4-triazole]	–	IC50 [3]: 1 to 10 µM
CC1(C)Oc2ccc(C(=O)n3nc(N)nc3Nc3ccc(N4CCOCC4)cc3)cc2NC1=O [compound 69, 3-amino-1-(2,2-dimethyl-2H-benzo[b][1,4]oxazin-3(4H)-on-6-yl)carbonyl-5-(4-(morpholin-4-yl)phenylamino)-1H-1,2,4-triazole]	–	IC50 [1]: 1 to 10 µM
Nc1nc(Nc2ccc(N3CCOCC3)cc2)nn1C(=O)c1ccc(S(N)(=O)=O)cc1 [compound 70, 5-amino-1-(4-(aminosulfonyl)phenyl)carbonyl-3-(4-(morpholin-4-yl)phenylamino)-1H-1,2,4-triazole]	> 20 µM	–
Nc1nc(Nc2ccc(N3CCOCC3)cc2)nn1C(=O)c1cccc([N+](=O)[O-])c1 [compound 72, 5-amino-3-(4-(morpholin-4-yl)phenylamino)-1-(3-(nitro)phenyl)carbonyl-1H-1,2,4-triazole]	1 to 10 µM	–
Nc1nc(Nc2ccc(N3CCOCC3)cc2)nn1C(=O)c1cccc(Cl)c1 [compound 74, 5-amino-1-(3-(chloro)phenyl)carbonyl-3-(4-(morpholin-4-yl)phenylamino)-1H-1,2,4-triazole]	1 to 10 µM	–
Nc1nc(Nc2ccc(N3CCOCC3)cc2)n(C(=O)c2cccc(Cl)c2)n1 [compound 75, 3-amino-1-(3-(chloro)phenyl)carbonyl-5-(4-(morpholin-4-yl)phenylamino)-1H-1,2,4-triazole]	–	IC50 (Table 2, Hela cells, Axl antibody cross-linking stimulation, phospho-Akt chemiluminescence): > 20 µM
CC1(C)Oc2ccc(C(=O)n3nc(Nc4ccc(OCCN5CCCCC5)cc4)nc3N)cc2NC1=O [compound 78, 5-amino-1-(2,2-dimethyl-2H-benzo[b][1,4]oxazin-3(4H)-on-6-yl)carbonyl-3-[4-[2-(piperidin-1-yl)ethoxy]phenylamino]-1H-1,2,4-triazole]	–	IC50 [3]: < 1 µM
COc1cccc(C(=O)n2nc(Nc3ccc(N4CCOCC4)cc3)nc2N)c1 [compound 81, 5-amino-1-(3-(methoxy)phenyl)carbonyl-3-(4-(morpholin-4-yl)phenylamino)-1H-1,2,4-triazole]	1 to 10 µM	–
CN(C)CCOc1ccc(Nc2nc(N)n(C(=O)c3ccc(OC(C)(C)C)cc3)n2)cc1 [compound 83, 5-amino-3-[4-[2-(dimethylamino)ethoxy]phenylamino]-1-(4-(tert-butoxy)phenyl)carbonyl-1H-1,2,4-triazole]	< 1 µM	–
CC(C)Oc1ccc(C(=O)n2nc(Nc3ccc(OCCN(C)C)cc3)nc2N)cc1 [compound 85, 5-amino-3-[4-[2-(dimethylamino)ethoxy]phenylamino]-1-(4-(iso-propoxy)phenyl)carbonyl-1H-1,2,4-triazole]	–	IC50 [4]: < 1 µM
CN(C)CCOc1ccc(Nc2nc(N)n(C(=O)c3ccc4c(c3)NC(=O)C(C)(C)O4)n2)cc1 [compound 86, 5-amino-3-[4-[2-(dimethylamino)ethoxy]phenylamino]-1-(2,2-dimethyl-2H-benzo[b][1,4]oxazin-3(4H)-on-6-yl)carbonyl-1H-1,2,4-triazole]	–	IC50 [3]: < 1 µM
CN(C)CCOc1ccc(Nc2nc(N)n(C(=O)c3ccc(N(C)C)cc3)n2)cc1 [compound 87, 5-amino-3-[4-[2-(dimethylamino)ethoxy]phenylamino]-1-(4-(dimethylamino)phenyl)carbonyl-1H-1,2,4-triazole]	–	IC50 [4]: < 1 µM
Cc1ccc(C(=O)n2nc(Nc3ccc(OCCCN(C)C)cc3)nc2N)cc1 [compound 91, 5-amino-3-[4-[3-(dimethylamino)propoxy]phenylamino]-1-(4-(methyl)phenyl)carbonyl-1H-1,2,4-triazole]	–	IC50 [4]: 1 to 10 µM

More lines, main results first:

IC50 [2]	Compound	further results
1 to 10 µM	CC(C)Oc1ccc(Nc2nc(N)n(C(=O)c3cccc([N+](=O)[O-])c3)n2)cc1 [compound 71, 5-amino-3-[4-(iso-propoxy)phenylamino]-1-(3-(nitro)phenyl)carbonyl-1H-1,2,4-triazole]	–
1 to 10 µM	CC(C)Oc1ccc(Nc2nc(N)n(C(=O)c3cccc(O)c3)n2)cc1 [compound 73, 5-amino-1-(3-(hydroxy)phenyl)carbonyl-3-[4-(iso-propoxy)phenylamino]-1H-1,2,4-triazole]	–
> 20 µM	CC(C)Oc1ccc(Nc2nc(N)n(C(=O)c3cccc(Cl)c3)n2)cc1 [compound 76, 5-amino-1-(3-(chloro)phenyl)carbonyl-3-[4-(iso-propoxy)phenylamino]-1H-1,2,4-triazole]	–
1 to 10 µM	CC(C)Oc1ccc(Nc2nc(N)n(C(=O)c3ccc(OCCN4CCCCC4)cc3)n2)cc1 [compound 77, 5-amino-3-[4-(iso-propoxy)phenylamino]-1-[4-[2-(piperidin-1-yl)ethoxy]phenyl)carbonyl-1H-1,2,4-triazole]	–
1 to 10 µM	COC(=O)c1cccc(C(=O)n2nc(Nc3ccc(OCCN4CCCCC4)cc3)nc2N)c1 [compound 79, 5-amino-1-(3-(methoxycarbonyl)phenyl)carbonyl-3-[4-[2-(piperidin-1-yl)ethoxy]phenylamino]-1H-1,2,4-triazole]	–
< 1 µM	COc1cccc(C(=O)n2nc(Nc3ccc(OCCN4CCCCC4)cc3)nc2N)c1 [compound 80, 5-amino-1-(3-(methoxy)phenyl)carbonyl-3-[4-[2-(piperidin-1-yl)ethoxy]phenylamino]-1H-1,2,4-triazole]	–
